The subject of one assay is MDA468. Briefly: In vitro cell growth assay (MTS), MDA468. Type of assay: cell-based. The settings on record: 72 h, human breast line MDA468, three days after drug treatment, read-out: MDA IC50.
The next assay addresses mTOR (Homo sapiens, UniProt P42345). As to the kind of experiment: mTOR enzyme assay (DELFIA, purified FLAG-TOR, His6-S6K substrate). Type of assay: biochemical. Also on record: FLAG. To be noted: 100 μM ATP, 2 hours.
For another assay, the system named is LNCap. As to the kind of experiment: In vitro cell growth assay (MTS), LNCap. Type of assay: cell-based. To be noted: LNCaP, 72 h, human prostate line, three days after drug treatment.
The target of a further assay is PI3K-alpha (Homo sapiens, UniProt P42336). As to the kind of experiment: PI3K-alpha fluorescence polarization assay. Type of assay: biochemical. To be noted: 20 μM PIP2, 25 μM ATP; read-out: PI3Kα IC50. The method in brief: (§1)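 PIP2 (diC8) and ATP substrate with PI3K in 20 mM HEPES pH 7.5, 2 mM MgCl2, 0.05% CHAPS, 0.01% βME; 1% DMSO final; 30–60 min reaction. Stopped with EDTA plus GST-GRP (70 nM) and TAMRA probe (10 nM); FP (mP) read after 30–90 min, with no-enzyme controls.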

A further assay has as its target PI3K-gamma (Homo sapiens, UniProt P48736). Briefly: PI3K-gamma fluorescence polarization assay. Type of assay: biochemical. The settings on record: 20 μM PIP2, 25 μM ATP; read-out: PI3Kγ IC50. The method in brief:
as §1

The record followed here is patent publication US8835429B2, “Pyrimidine compounds, their use as mTOR kinase and Pl3 kinase inhibitors, and their syntheses” (Wyeth LLC, priority 2009, dated 2014).

mTOR, sequence (P42345 1360-2549 limits assumed): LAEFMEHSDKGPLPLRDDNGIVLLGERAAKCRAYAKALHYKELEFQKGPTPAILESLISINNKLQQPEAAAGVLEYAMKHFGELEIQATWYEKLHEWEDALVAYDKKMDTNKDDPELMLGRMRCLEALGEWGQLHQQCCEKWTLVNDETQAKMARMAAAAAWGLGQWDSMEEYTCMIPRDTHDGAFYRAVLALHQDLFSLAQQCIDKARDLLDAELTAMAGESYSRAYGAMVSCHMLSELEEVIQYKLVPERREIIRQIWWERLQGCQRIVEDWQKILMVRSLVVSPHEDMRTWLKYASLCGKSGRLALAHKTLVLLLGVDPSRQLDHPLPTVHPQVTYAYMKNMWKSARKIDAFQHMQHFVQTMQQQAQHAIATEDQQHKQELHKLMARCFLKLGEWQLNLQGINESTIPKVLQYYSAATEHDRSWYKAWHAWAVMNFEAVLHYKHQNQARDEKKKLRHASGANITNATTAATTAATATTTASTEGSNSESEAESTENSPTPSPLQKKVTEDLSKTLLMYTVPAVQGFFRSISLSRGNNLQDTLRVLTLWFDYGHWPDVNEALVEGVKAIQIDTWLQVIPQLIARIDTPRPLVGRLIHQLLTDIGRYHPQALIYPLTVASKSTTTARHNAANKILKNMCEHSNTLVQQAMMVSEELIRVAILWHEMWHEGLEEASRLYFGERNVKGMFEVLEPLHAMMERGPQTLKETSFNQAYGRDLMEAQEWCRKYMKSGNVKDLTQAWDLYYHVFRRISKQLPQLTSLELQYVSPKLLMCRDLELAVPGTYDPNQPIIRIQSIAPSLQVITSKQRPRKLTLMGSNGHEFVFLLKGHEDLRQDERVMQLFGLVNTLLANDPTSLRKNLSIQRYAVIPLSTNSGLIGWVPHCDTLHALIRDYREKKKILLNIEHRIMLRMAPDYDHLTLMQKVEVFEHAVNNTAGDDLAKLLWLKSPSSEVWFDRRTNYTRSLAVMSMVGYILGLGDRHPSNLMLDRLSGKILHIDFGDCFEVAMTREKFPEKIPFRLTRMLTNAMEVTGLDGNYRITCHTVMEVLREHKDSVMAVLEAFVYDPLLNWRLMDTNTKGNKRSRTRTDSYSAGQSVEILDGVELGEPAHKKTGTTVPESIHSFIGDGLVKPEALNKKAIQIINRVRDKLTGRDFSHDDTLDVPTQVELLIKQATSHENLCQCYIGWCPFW
PI3K-alpha, sequence (P42336 whole entry, species assumed): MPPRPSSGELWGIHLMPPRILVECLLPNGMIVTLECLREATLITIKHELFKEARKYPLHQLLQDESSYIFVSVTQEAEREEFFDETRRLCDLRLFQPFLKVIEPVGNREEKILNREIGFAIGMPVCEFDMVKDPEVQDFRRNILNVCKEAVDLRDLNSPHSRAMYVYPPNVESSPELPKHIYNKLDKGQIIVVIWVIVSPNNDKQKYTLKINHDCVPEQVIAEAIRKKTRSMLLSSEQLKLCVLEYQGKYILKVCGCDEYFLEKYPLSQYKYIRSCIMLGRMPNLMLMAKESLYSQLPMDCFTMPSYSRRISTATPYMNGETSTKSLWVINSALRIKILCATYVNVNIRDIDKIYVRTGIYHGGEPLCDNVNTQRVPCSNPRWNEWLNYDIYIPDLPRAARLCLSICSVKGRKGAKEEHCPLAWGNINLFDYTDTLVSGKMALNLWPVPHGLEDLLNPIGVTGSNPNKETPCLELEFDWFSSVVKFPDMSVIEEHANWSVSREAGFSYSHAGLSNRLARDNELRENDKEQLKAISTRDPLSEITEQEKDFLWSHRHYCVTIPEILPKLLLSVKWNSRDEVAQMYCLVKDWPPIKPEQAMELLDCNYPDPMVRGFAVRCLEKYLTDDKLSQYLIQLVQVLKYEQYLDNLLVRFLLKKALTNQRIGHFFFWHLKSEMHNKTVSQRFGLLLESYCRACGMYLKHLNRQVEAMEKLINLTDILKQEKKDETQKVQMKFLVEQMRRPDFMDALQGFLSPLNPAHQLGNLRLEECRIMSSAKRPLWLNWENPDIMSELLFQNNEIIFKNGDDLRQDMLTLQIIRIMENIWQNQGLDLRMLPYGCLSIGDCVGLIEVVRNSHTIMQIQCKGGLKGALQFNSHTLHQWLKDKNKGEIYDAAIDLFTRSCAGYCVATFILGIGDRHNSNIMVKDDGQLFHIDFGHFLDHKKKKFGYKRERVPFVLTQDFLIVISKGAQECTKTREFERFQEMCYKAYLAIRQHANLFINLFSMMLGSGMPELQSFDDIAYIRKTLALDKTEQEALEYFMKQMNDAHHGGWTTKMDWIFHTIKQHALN
PI3K-alpha, sequence (P27986 whole entry partner, species assumed): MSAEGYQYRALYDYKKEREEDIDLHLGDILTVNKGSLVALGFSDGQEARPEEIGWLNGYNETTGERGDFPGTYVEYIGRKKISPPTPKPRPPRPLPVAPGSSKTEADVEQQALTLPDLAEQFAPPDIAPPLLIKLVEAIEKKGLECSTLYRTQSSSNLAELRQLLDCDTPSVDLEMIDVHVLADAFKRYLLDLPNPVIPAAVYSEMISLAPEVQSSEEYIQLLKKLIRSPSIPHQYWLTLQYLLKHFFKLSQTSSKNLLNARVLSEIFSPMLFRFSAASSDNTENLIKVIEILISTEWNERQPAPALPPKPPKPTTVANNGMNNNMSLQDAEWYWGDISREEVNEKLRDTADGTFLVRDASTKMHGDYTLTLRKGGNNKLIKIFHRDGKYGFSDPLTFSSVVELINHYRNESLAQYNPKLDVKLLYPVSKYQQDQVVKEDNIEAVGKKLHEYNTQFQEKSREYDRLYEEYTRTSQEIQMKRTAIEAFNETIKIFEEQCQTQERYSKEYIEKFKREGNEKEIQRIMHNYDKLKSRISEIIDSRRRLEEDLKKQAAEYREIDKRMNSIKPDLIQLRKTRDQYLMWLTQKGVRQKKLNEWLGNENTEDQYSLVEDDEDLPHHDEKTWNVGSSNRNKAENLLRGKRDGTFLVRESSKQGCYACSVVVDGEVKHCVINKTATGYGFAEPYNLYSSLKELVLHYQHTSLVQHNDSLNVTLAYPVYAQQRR
PI3K-gamma, sequence (P48736 whole entry, species assumed): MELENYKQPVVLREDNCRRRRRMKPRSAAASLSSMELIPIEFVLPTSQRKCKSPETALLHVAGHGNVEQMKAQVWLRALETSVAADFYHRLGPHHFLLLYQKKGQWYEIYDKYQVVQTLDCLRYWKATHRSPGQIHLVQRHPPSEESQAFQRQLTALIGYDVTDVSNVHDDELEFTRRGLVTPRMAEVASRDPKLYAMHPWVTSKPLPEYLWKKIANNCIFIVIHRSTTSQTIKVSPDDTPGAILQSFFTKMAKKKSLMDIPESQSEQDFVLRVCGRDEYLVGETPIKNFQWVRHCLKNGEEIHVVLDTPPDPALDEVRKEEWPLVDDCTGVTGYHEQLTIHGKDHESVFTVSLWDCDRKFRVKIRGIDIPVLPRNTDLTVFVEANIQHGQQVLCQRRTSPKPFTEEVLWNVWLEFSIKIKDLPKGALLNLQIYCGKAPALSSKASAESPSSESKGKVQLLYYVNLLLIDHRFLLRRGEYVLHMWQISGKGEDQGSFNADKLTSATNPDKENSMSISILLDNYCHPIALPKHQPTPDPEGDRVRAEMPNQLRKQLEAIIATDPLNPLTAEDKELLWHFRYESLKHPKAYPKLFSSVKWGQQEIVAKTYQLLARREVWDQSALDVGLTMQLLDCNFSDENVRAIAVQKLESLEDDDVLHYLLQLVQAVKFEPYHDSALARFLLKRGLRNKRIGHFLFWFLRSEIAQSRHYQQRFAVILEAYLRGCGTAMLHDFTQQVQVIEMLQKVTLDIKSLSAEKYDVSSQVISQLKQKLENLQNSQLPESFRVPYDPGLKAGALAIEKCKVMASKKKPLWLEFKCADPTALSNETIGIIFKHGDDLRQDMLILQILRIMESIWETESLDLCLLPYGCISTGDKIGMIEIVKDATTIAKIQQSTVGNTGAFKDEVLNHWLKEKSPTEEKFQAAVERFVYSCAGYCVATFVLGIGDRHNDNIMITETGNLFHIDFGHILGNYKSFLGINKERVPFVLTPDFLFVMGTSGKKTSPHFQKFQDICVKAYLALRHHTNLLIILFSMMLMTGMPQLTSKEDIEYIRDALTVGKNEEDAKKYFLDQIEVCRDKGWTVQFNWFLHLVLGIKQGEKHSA

Regarding `CC(C)N1CCN(C(=O)c2ccc(NC(=O)Nc3ccc(-c4nc(N5C6CCC5COC6)cc(N5CCOC[C@H]5C)n4)cc3)cc2)CC1` [1-(4-{[4-(1-methylethyl)piperazin-1-yl]carbonyl}phenyl)-3-(4-{4-[(3R)-3-methylmorpholin-4-yl]-6-(3-oxa-8-azabicyclo[3.2.1]oct-8-yl)pyrimidin-2-yl}phenyl)urea], the IC50 in the assay on MDA468 was 0.0008 µM; against mTOR, 0.0006 µM; in the assay on LNCap it was ≤ 0.0008 µM; on PI3K-alpha, 0.123 µM; on PI3K-gamma, 1.2 µM.

For `CC(C)N1CCN(C(=O)c2ccc(NC(=O)Nc3ccc(-c4nc(C5CCOCC5)cc(N5C6CCC5COC6)n4)cc3)cc2)CC1` [1-(4-{[4-(1-methylethyl)piperazin-1-yl]carbonyl}phenyl)-3-{4-[4-(3-oxa-8-azabicyclo[3.2.1]oct-8-yl)-6-(tetrahydro-2H-pyran-4-yl)pyrimidin-2-yl]phenyl}urea], the IC50 with MDA468 was 0.0008 µM; at mTOR it was 0.000295 µM; in the assay on LNCap it was ≤ 0.0008 µM; on PI3K-alpha, 0.353 µM; at PI3K-gamma it was 3.21 µM.

Take `C[C@@H]1COCCN1c1cc(N2C3CCC2COC3)nc(-c2ccc(NC(=O)Nc3ccc(C(=O)N(C)C)cc3)cc2)n1` [N,N-dimethyl-4-{[(4-{4-[(3R)-3-methylmorpholin-4-yl]-6-(3-oxa-8-azabicyclo[3.2.1]oct-8-yl)pyrimidin-2-yl}phenyl)carbamoyl]amino}benzamide]: the IC50 in the assay with MDA468 is 0.0008 µM; on mTOR, 0.00044 µM; with LNCap, ≤ 0.0008 µM; at PI3K-alpha it was 0.108 µM; on PI3K-gamma, 1.64 µM.

As for `O=C(Nc1ccc(-c2nc(NC3CCOCC3)cc(N3C4CCC3COC4)n2)cc1)Nc1cccnc1` [1-{4-[4-(3-oxa-8-azabicyclo[3.2.1]oct-8-yl)-6-(tetrahydro-2H-pyran-4-ylamino)pyrimidin-2-yl]phenyl}-3-pyridin-3-ylurea], the IC50 with MDA468 was 0.16 µM; at mTOR, 0.0033 µM; with LNCap, 0.05 µM; at PI3K-alpha it was 2.68 µM; at PI3K-gamma, ≥ 10 µM.

On to `C[C@@H]1COCCN1c1cc(N2C3CCC2COC3)nc(-c2ccc(NC(=O)Nc3ccc(C(=O)N4CCN(C)CC4)cc3)cc2)n1` [1-(4-{4-[(3R)-3-methylmorpholin-4-yl]-6-(3-oxa-8-azabicyclo[3.2.1]oct-8-yl)pyrimidin-2-yl}phenyl)-3-{4-[(4-methylpiperazin-1-yl)carbonyl]phenyl}urea], for which the IC50 in the assay on MDA468 was 0.0008 µM; on mTOR it was 0.00075 µM; in the assay on LNCap, ≤ 0.0008 µM; on PI3K-alpha, 0.078 µM; on PI3K-gamma it was 1.13 µM.

Regarding `CN1CCN(Cc2ccc(NC(=O)Nc3ccc(-c4nc(NCCS(C)(=O)=O)cc(N5C6CCC5COC6)n4)cc3)cc2)CC1` [1-{4-[(4-methylpiperazin-1-yl)methyl]phenyl}-3-{4-[4-{[2-(methylsulfonyl)ethyl]amino}-6-(3-oxa-8-azabicyclo[3.2.1]oct-8-yl)pyrimidin-2-yl]phenyl}urea], the IC50 worked out at 0.5 µM in the assay with MDA468; 0.0175 µM against mTOR; 0.4 µM in the assay on LNCap; 3.98 µM at PI3K-alpha; 10.8 µM on PI3K-gamma.

Consider `CN(C)Cc1cc(N2C3CCC2COC3)nc(-c2ccc(NC(=O)Nc3cccnc3)cc2)n1` [1-(4-{4-[(dimethylamino)methyl]-6-(3-oxa-8-azabicyclo[3.2.1]oct-8-yl)pyrimidin-2-yl}phenyl)-3-pyridin-3-ylurea], for which the IC50 in the assay with MDA468 is 1 µM; against mTOR it was 0.0109 µM; with LNCap it was 0.6 µM; on PI3K-alpha, 3.16 µM; at PI3K-gamma it was > 10 µM.

As for `CN(C)Cc1ccc(NC(=O)Nc2ccc(-c3nc(N4C5CCC4COC5)cc(N4C[C@@H]5C[C@H]4CO5)n3)cc2)cc1` [1-{4-[(dimethylamino)methyl]phenyl}-3-(4-{4-[(1S,4S)-2-oxa-5-azabicyclo[2.2.1]hept-5-yl]-6-(3-oxa-8-azabicyclo[3.2.1]oct-8-yl)pyrimidin-2-yl}phenyl)urea], the IC50 is 0.15 µM with MDA468; 0.016 µM against mTOR; 0.06 µM with LNCap; 1.24 µM on PI3K-alpha; ≥ 10 µM at PI3K-gamma.

Take `CC(C)Nc1cc(N2C3CCC2COC3)nc(-c2ccc(NC(=O)Nc3ccc(CN4CCCC4)cc3)cc2)n1` [1-(4-{4-[(1-methylethyl)amino]-6-(3-oxa-8-azabicyclo[3.2.1]oct-8-yl)pyrimidin-2-yl}phenyl)-3-[4-(pyrrolidin-1-ylmethyl)phenyl]urea]: the IC50 with MDA468 amounted to 0.08 µM; against mTOR, 0.00295 µM; in the assay on LNCap, 0.11 µM; on PI3K-alpha, 1.09 µM; at PI3K-gamma it was 3.58 µM.

For the compound `C[C@@H]1COCCN1c1cc(N2C3CCC2COC3)nc(-c2ccc(NC(=O)Nc3ccc(OCCN(C)C)cc3)cc2)n1` [1-{4-[2-(dimethylamino)ethoxy]phenyl}-3-(4-{4-[(3R)-3-methylmorpholin-4-yl]-6-(3-oxa-8-azabicyclo[3.2.1]oct-8-yl)pyrimidin-2-yl}phenyl)urea], the IC50 amounted to 0.013 µM with MDA468; 0.00155 µM against mTOR; 0.004 µM in the assay with LNCap; 0.853 µM at PI3K-alpha; 6.47 µM on PI3K-gamma.

With `C[C@@H]1COCCN1c1cc(N2C3CCC2COC3)nc(-c2ccc(NC(=O)Nc3ccc(N4CCN(C)CC4)nc3)cc2)n1` [1-(4-{4-[(3R)-3-methylmorpholin-4-yl]-6-(3-oxa-8-azabicyclo[3.2.1]oct-8-yl)pyrimidin-2-yl}phenyl)-3-[6-(4-methylpiperazin-1-yl)pyridin-3-yl]urea], the IC50 with MDA468 came to 0.008 µM; against mTOR, 0.0025 µM; with LNCap, 0.0035 µM; at PI3K-alpha it was 1.1 µM; on PI3K-gamma, 2.98 µM.

For `C[C@@H]1COCCN1c1cc(N2C3CCC2COC3)nc(-c2ccc(NC(=O)Nc3ccc(CN4CCN(C)CC4)cc3)cc2)n1` [1-(4-{4-[(3R)-3-methylmorpholin-4-yl]-6-(3-oxa-8-azabicyclo[3.2.1]oct-8-yl)pyrimidin-2-yl}phenyl)-3-{4-[(4-methylpiperazin-1-yl)methyl]phenyl}urea], the IC50 with MDA468 is 0.012 µM; on mTOR, 0.0012 µM; in the assay with LNCap, 0.006 µM; at PI3K-alpha, 1.3 µM; on PI3K-gamma, 8.48 µM.

Consider `C[C@@H]1CN(c2cc(N3C4CCC3COC4)nc(-c3ccc(NC(=O)Nc4ccc(N5CCN(C)CC5)nc4)cc3)n2)C[C@H](C)O1` [1-(4-{4-[(2R,6S)-2,6-dimethylmorpholin-4-yl]-6-(3-oxa-8-azabicyclo[3.2.1]oct-8-yl)pyrimidin-2-yl}phenyl)-3-[6-(4-methylpiperazin-1-yl)pyridin-3-yl]urea], for which the IC50 was 0.2 µM with MDA468; 0.0152 µM at mTOR; 0.1 µM with LNCap; 1.69 µM on PI3K-alpha; 15.3 µM at PI3K-gamma.

Consider `C[C@@H]1COCCN1c1cc(N2C3CCC2COC3)nc(-c2ccc(NC(=O)Nc3cccnc3)cc2)n1` [1-(4-{4-[(3R)-3-methylmorpholin-4-yl]-6-(3-oxa-8-azabicyclo[3.2.1]oct-8-yl)pyrimidin-2-yl}phenyl)-3-pyridin-3-ylurea], for which the IC50 in the assay on MDA468 was 0.08 µM; against mTOR, 0.00077 µM; with LNCap it was 0.02 µM; on PI3K-alpha it was 1.06 µM; at PI3K-gamma it was 7.47 µM.

For the compound `O=C(Nc1ccncc1)Nc1ccc(-c2nc(N3C4CCC3COC4)cc(N3C[C@@H]4C[C@H]3CO4)n2)cc1` [1-(4-{4-[(1S,4S)-2-oxa-5-azabicyclo[2.2.1]hept-5-yl]-6-(3-oxa-8-azabicyclo[3.2.1]oct-8-yl)pyrimidin-2-yl}phenyl)-3-pyridin-4-ylurea], the IC50 with MDA468 is 0.075 µM; against mTOR, 0.00305 µM; with LNCap, 0.03 µM; at PI3K-alpha, 2.81 µM; at PI3K-gamma it was ≥ 10 µM.

Take `CN1CCN(c2ccc(NC(=O)Nc3ccc(-c4nc(C5CCOCC5)cc(N5C6CCC5COC6)n4)cc3)cc2)CC1` [1-[4-(4-methylpiperazin-1-yl)phenyl]-3-{4-[4-(3-oxa-8-azabicyclo[3.2.1]oct-8-yl)-6-(tetrahydro-2H-pyran-4-yl)pyrimidin-2-yl]phenyl}urea]: the IC50 in the assay on MDA468 was 0.004 µM; against mTOR, 0.000855 µM; in the assay on LNCap, ≤ 0.0008 µM; on PI3K-alpha it was 1.06 µM; at PI3K-gamma it was 4.73 µM.

Consider `O=C(Nc1ccncc1)Nc1ccc(-c2nc(C3CCOCC3)cc(N3C4CCC3COC4)n2)cc1` [1-{4-[4-(3-oxa-8-azabicyclo[3.2.1]oct-8-yl)-6-(tetrahydro-2H-pyran-4-yl)pyrimidin-2-yl]phenyl}-3-pyridin-4-ylurea], for which the IC50 in the assay on MDA468 was 0.004 µM; against mTOR it was 0.000365 µM; with LNCap, ≤ 0.0008 µM; on PI3K-alpha, 1.78 µM; on PI3K-gamma, 7.98 µM.

Take `CN1CCN(c2ccc(NC(=O)Nc3ccc(-c4nc(NCCS(C)(=O)=O)cc(N5C6CCC5COC6)n4)cc3)cc2)CC1` [1-[4-(4-methylpiperazin-1-yl)phenyl]-3-{4-[4-{[2-(methylsulfonyl)ethyl]amino}-6-(3-oxa-8-azabicyclo[3.2.1]oct-8-yl)pyrimidin-2-yl]phenyl}urea]: the IC50 in the assay on MDA468 is 0.019 µM; at mTOR, 0.0145 µM; in the assay on LNCap, 0.017 µM; on PI3K-alpha, 1.84 µM; on PI3K-gamma, ≥ 10 µM.
